Data: ChEMBL document CHEMBL3414512, “Discovery of orally active anticancer candidate CFI-400945 derived from biologically promising spirooxindoles: success and challenges” (Eur J Med Chem, 2015)

Assays:
[1] = target: Fibroblast growth factor receptor 1 (Homo sapiens, UniProt P11362); experiment: Inhibition of FGFR1 (unknown origin)
[2] = Inhibition of SLC34A2/ROS (unknown origin); parameters: species or system Homo sapiens
[3] = target: Serine/threonine-protein kinase PLK1 (Homo sapiens, UniProt P53350); experiment: Inhibition of PLK-1 (unknown origin)
[4] = target: Serine/threonine-protein kinase PLK2 (Homo sapiens, UniProt Q9NYY3); experiment: Inhibition of PLK-2 (unknown origin)
[5] = target: Serine/threonine-protein kinase PLK3 (Homo sapiens, UniProt Q9H4B4); experiment: Inhibition of PLK-3 (unknown origin)
Sequence of Serine/threonine-protein kinase PLK3 (Q9H4B4 whole entry): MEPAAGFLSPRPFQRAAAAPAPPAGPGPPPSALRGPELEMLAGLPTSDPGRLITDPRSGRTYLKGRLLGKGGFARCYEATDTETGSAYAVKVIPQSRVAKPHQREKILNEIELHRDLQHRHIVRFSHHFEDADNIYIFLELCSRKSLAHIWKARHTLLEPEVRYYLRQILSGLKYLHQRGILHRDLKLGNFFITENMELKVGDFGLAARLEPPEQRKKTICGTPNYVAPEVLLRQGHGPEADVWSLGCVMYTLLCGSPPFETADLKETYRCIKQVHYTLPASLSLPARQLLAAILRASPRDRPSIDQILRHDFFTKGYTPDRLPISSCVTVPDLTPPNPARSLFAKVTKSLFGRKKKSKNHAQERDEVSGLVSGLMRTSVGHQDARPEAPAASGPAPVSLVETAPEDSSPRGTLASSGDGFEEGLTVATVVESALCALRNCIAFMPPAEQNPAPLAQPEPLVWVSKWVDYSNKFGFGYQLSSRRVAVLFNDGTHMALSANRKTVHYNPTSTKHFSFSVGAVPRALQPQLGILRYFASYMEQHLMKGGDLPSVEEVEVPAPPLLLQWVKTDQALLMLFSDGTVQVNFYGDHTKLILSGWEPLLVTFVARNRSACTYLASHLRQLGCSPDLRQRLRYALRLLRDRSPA

Sequence of Serine/threonine-protein kinase PLK2 (Q9NYY3 whole entry): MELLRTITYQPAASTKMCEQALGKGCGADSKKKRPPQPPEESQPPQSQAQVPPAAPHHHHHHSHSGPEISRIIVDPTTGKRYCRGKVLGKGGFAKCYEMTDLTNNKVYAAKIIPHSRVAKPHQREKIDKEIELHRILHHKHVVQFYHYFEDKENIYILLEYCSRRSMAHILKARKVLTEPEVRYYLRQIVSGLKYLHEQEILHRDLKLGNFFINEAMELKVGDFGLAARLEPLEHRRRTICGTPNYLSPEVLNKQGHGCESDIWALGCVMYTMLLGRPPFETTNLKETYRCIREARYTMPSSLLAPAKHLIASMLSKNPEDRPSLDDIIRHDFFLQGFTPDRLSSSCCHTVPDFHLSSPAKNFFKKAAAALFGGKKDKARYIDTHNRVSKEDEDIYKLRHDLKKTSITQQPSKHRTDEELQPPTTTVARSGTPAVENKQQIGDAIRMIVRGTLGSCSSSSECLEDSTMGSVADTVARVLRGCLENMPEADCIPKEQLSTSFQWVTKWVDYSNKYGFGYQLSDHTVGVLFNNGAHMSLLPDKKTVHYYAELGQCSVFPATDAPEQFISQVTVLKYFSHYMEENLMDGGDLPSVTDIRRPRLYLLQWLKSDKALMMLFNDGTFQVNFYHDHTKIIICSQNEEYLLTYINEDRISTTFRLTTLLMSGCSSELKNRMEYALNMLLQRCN
Sequence of Fibroblast growth factor receptor 1 (P11362 whole entry): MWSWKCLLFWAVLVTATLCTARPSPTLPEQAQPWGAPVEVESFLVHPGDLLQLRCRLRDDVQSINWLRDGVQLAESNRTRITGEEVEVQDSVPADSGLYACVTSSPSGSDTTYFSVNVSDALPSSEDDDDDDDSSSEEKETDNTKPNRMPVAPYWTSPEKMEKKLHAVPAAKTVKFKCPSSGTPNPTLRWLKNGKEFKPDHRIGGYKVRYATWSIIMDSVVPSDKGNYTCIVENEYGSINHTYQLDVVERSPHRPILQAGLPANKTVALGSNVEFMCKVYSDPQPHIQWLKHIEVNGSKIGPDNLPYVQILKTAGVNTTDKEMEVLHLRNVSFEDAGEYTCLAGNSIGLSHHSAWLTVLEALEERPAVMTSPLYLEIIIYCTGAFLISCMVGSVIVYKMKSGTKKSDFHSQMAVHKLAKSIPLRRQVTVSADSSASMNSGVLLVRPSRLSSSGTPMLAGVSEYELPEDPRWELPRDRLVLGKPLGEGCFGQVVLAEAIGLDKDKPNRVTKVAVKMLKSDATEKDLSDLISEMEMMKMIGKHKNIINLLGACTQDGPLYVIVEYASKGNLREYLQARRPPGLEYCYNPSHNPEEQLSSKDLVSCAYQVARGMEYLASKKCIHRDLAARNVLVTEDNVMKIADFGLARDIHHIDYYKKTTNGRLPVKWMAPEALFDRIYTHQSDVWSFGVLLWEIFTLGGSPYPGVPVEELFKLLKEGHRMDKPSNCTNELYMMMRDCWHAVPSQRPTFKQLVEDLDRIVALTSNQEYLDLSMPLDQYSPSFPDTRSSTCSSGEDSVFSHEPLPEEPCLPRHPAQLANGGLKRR
Sequence of Serine/threonine-protein kinase PLK1 (P53350 whole entry): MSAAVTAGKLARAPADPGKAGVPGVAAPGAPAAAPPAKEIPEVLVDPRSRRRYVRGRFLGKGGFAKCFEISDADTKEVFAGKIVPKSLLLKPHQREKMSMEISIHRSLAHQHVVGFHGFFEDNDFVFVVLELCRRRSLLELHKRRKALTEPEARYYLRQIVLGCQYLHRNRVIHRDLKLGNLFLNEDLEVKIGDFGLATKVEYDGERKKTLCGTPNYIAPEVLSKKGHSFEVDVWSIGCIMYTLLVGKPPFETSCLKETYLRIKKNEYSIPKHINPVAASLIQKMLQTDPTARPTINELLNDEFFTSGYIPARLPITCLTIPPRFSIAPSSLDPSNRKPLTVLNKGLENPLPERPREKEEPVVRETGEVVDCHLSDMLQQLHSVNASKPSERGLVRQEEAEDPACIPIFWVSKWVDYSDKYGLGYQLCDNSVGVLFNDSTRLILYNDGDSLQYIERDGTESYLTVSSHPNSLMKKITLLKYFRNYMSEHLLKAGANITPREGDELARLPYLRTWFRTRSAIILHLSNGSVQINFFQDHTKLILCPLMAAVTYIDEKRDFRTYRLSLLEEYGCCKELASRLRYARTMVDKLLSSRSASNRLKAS

- EC50 [1]: 1.1 µM
- EC50 [2]: 0.466 µM
- IC50 [3]: > 50 µM
- IC50 [4]: > 50 µM
- IC50 [5]: > 50 µM
Compound: COc1ccc2c(c1)[C@]1(C[C@H]1c1ccc3c(/C=C/c4ccc(CN5C[C@@H](C)O[C@@H](C)C5)cc4)n[nH]c3c1)C(=O)N2 [OCIFISERTIB]
